We go through 33 substances from US6967196B1, “Sulfonamide compounds and uses thereof” (Bristol-Myers Squibb Company, priority 1999, dated 2005).

pIC50: −log10 of the molar value.

Usually pIC50 stands for −log10 of the IC50, conventionally taken in molar units.

The subject of one experiment is amyloid β production in transfected H4 (human neuroglioma) cells stably expressing APP constructs. Briefly: In vitro cell-based assay of inhibitors of amyloid β production (ELISA). The note with it: transfected H4 cells stably expressing APP constructs; approximately 16 hours incubation; amyloid β in medium by ELISA; read-out: ACTIVITY (IC50, inhibition of amyloid β production). Summed up:
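Cells expressing wild-type or variant APP were plated ≥6 h before medium was replaced with compound-containing medium (initial screen 10-100 μM) and incubated ~16 h. Secreted Aβ in medium was quantified by sandwich ELISA (C-terminal-specific mouse monoclonal capture, N-terminal rabbit polyclonal detection) against an Aβ standard curve.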
On the technique in general: ELISA stands for enzyme-linked immunosorbent assay.
For “methyl(6R)-6-[(2,5-dichlorophenyl)-[(4-chlorophenyl)sulfonyl]-amino]-3-thioheptanoic [Example 1185]”, the pIC50 was 7.30 to 7.60.

Staying with this experiment, now noted: transfected H4 cells stably expressing APP; approx. 16 h incubation; amyloid β in medium by ELISA; read-out: ACTIVITY (IC50, inhibition of amyloid β production).
In the case of “N-{3-[2-({[(4-chlorophenyl)sulfonyl]-2,5-difluoroanilino}methyl)phenoxy]propyl}-N-methylbenzamide [Example 800]”, the pIC50 is 6.30 to 7.00.

Take “N-{3-[2-({[(4-chlorophenyl)sulfonyl]-2,5-difluoroanilino}methyl)phenoxy]propyl}-N-methylbutanamide [Example 638]”: the pIC50 was 6.30 to 7.00.

With “N-{4-[2-(1-{[(4-chlorophenyl)sulfonyl]-2,5-difluoroanilino}ethyl)phenoxy]butyl}-2-cyclohexyl-N-ethylacetamide [Example 785]”, the pIC50 was 6.30 to 7.00.

Take “N-{4-[2-(1-{[(4-chlorophenyl)sulfonyl]-2,5-difluoroanilino}ethyl)phenoxy]butyl}-2-ethyl-N-methylhexanamide [Example 676]”: the pIC50 is 6.30 to 7.00.

In the case of “N-{4-[2-(1-{[(4-chlorophenyl)sulfonyl]-2,5-difluoroanilino}ethyl)phenoxy]butyl}-N,2,4-trimethylpentanamide [Example 700]”, the pIC50 was 6.30 to 7.00.

Consider “N-{4-[2-(1-{[(4-chlorophenyl)sulfonyl]-2,5-difluoroanilino}ethyl)phenoxy]butyl}-N-ethyl-2-thiophenecarboxamide [Example 756]”, for which the pIC50 was 6.30 to 7.00.

On to “N-{4-[2-(1-{[(4-chlorophenyl)sulfonyl]-2,5-difluoroanilino}ethyl)phenoxy]butyl}-N-ethylacrylamide [Example 739]”, for which the pIC50 is 6.30 to 7.00.

On to “N-{4-[2-(1-{[(4-chlorophenyl)sulfonyl]-2,5-difluoroanilino}ethyl)phenoxy]butyl}-N-ethylbenzamide [Example 767]”, for which the pIC50 was 6.30 to 7.00.

As for “S-ethyl 4-[2-(1-{[(4-chlorophenyl)sulfonyl]-2,5-difluoroanilino}ethyl)phenoxy]butyl(ethyl)thiocarbamate [Example 790]”, the pIC50 is 6.30 to 7.00.

Take “S-ethyl-3-[2-({[(4-chlorophenyl)sulfonyl]-2,5-difluoroanilino}methyl)phenoxy]propyl(methyl)thiocarbamate [Example 757]”: the pIC50 is 6.30 to 7.00.

In the case of “S-methyl 2-[2-(1-{[(4-chlorophenyl)sulfonyl]-2,5-difluoroanilino}ethyl)phenoxy]ethyl(ethyl)thiocarbamate [Example 771]”, the pIC50 is 6.30 to 7.00.

On to “S-methyl 4-[2-(1-{3-[2-(1-{[(4-chlorophenyl)sulfonyl]-2,5-difluoroanilino}ethyl)phenoxy]butyl(ethyl)thiocarbamate [Example 714]”, for which the pIC50 was 6.30 to 7.00.

Consider “benzyl 3-[2-(1-{[(4-chlorophenyl)sulfonyl]-2,5-difluoroanilino}ethyl)phenoxy]propyl(methyl)carbamate [Example 678]”, for which the pIC50 was 6.30 to 7.00.

“isobutyl 3-[2-(1-{[(4-chlorophenyl)sulfonyl]-2,5-difluoroanilino}ethyl)phenoxy]propyl(methyl)carbamate [Example 677]”: the pIC50 is 6.30 to 7.00.

Take “methyl (2S)-2-[[2-((1R)-1-{[(4-chlorophenyl)sulfonyl]-2,5-difluoroanilino}ethyl)benzyl](methyl)amino]propanoate [Example 779]”: the pIC50 is 6.30 to 7.00.

Take “methyl [[2-((1R)-1-{[(4-chlorophenyl)sulfonyl]-2,5-difluoroanilino}ethyl)benzyl]- [Example 798]”: the pIC50 was 6.30 to 7.00.

The same experiment, now with this note: transfected H4 cells stably expressing APP; approximately 16 hours incubation; amyloid β in medium by ELISA; read-out: ACTIVITY (IC50, inhibition of amyloid β production).
Regarding “N-{4-[2-(1-{[(4-chlorophenyl)sulfonyl]-2,5-difluoroanilino}ethyl)phenoxy]butyl}-3-cyclopentyl-N-ethylpropanamide [Example 943]”, the pIC50 is < 6.30.

“N-{4-[2-(1-{[(4-chlorophenyl)sulfonyl]-2,5-difluoroanilino}ethyl)phenoxy]butyl}-N-ethylcyclopropanecarboxamide [Example 959]”: the pIC50 is < 6.30.

“N-{4-[2-(1-{[(4-chlorophenyl)sulfonyl]-2,5-difluoroanilino}ethyl)phenoxy]butyl}-N-methyl-1-adamantanecarboxamide [Example 846]”: the pIC50 was 6.30 to 7.00.

In the case of “N-{4-[2-(1-{[(4-chlorophenyl)sulfonyl]-2,5-difluoroanilino}ethyl)phenoxy]butyl}-N-methylacrylamide [Example 843]”, the pIC50 was 6.30 to 7.00.

As to “S-ethyl 2-[2-(1-{[(4-chlorophenyl)sulfonyl]-2,5-difluoroanilino}ethyl)phenoxy]ethyl(methyl)thiocarbamate [Example 856]”, the pIC50 is 6.30 to 7.00.

Regarding “S-ethyl 4-[2-(1-{[(4-chlorophenyl)sulfonyl]-2,5-difluoroanilino}ethyl)phenoxy]ethyl(ethyl)thiocarbamate [Example 830]”, the pIC50 is 6.30 to 7.00.

“S-methyl 2-[2-(1-{[(4-chlorophenyl)sulfonyl]-2,5-difluoroanilino}ethyl)phenoxy]ethyl(methyl)thiocarbamate [Example 983]”: the pIC50 is < 6.30.

As to “S-{3-[2-({[(4-chlorophenyl)sulfonyl]-2,5-difluoroanilino}methyl)phenoxy]propyl} ethanethioate [Example 1014]”, the pIC50 is < 6.30.

Regarding “[2-((1R)-1-{[(4-chlorophenyl)sulfonyl]-2,5-difluoroanilino}ethyl)-5-fluorophenyl]methanesulfonic acid [Example 1009]”, the pIC50 is < 6.30.

On to “[({4-[2-((1R)-1-{[(4-chlorophenyl)sulfonyl]-2,5-difluoroanilino}ethyl)-5-fluorophenyl]butanoyl}amino)oxy]acetic acid [Example 1077]”, for which the pIC50 is < 6.30.

Take “ethyl 3-(2-{[(phenylsulfonyl)anilino]methyl}phenyl)propanoate [Example 995]”: the pIC50 was < 6.30.

Turning to “ethyl (2E)-3-[2-({[(4-chlorophenyl)sulfonyl]anilino}methyl)phenyl]-2-propenoate [Example 971]”, the pIC50 was < 6.30.

For “ethyl (2R)-2-{[(4-chlorophenyl)sulfonyl]-2,5-difluoroanilino}propanoate [Example 1060]”, the pIC50 is < 6.30.

As for “methyl 3-[2-((1R)-1-{[(4-chlorophenyl)sulfonyl]-2,5-difluoroanilino}ethyl)-5-fluorophenyl]propanoate [Example 1065]”, the pIC50 was < 6.30.

Regarding “methyl [{2-[2-(1-{[(4-chlorophenyl)sulfonyl]-2,5-difluoroanilino}ethyl)phenoxy]ethyl}(methyl)amino](oxo)acetate [Example 929]”, the pIC50 was < 6.30.

Consider “tert-butyl 4-{3-[2-({[(4-chlorophenyl)sulfonyl]anilino}methyl)phenoxy]propyl}-1-piperazinecarboxylate hydrochloride [Example 1028]”, for which the pIC50 is < 6.30.
